Paper PMC7347206, “Characterization of a long-term mouse primary liver 3D tissue model recapitulating innate-immune responses and drug-induced liver toxicity” (PLoS ONE, 2020)
Where two headings read alike, the source gives them in different places.

How the values were obtained:
[1] = read-out: Human Cmax; reported human in vivo Cmax; 48 (one per compound, as in cell); cited from earlier work
[2] = read-out: Mouse Cmax; reported mouse in vivo maximal plasma concentration; 41 (one per compound, as in cell); cited from earlier work
[3] = system: mouse primary hepatocyte 3D liver spheroids; assay: cells; details: for IC50: Mus musculus, Hepatocyte; for MOS [3D in vitro IC50 / Human Cmax] 48 h / MOS [3D in vitro IC50 / Human Cmax] 8 days: C57BL/6, mouse
Procedure: To avoid increased evaporation, a humidified lid (Labcyte, USA), filled with PBS, was placed on each plate. […] From day 4 on, 50% of the medium was replaced daily with serum-free maintenance medium (WME with Cell Maintenance Supplement Pack (Thermo Fisher Scientific, USA)).
Compounds were obtained from Sigma-Aldrich if not otherwise stated. […] Toxicity treatment started on day 7 with re-dosing every second day. On the first day of exposure, 50 μl of the cell culture media was removed and 50 μl of fresh cell culture media containing the compound solution was added to the well to achieve the desired concentration. For redosing, 50 μl of cell culture media was replaced with fresh compound-containing cell culture media. […] The dose-response curves were plotted, and IC50 values were calculated using Graph-Pad Prism.
Drug-induced liver injury (DILI) is a major concern in drug development, which often cannot be predicted in vitro due to inherent limitations of 2D hepatocyte cultures, including short-term viability and decreased functionality. […] The spheroids either experienced a single treatment and were analyzed after 48 hours (Fig 3A–3G, 48 h), or they were repeatedly treated every 2 days and analyzed at day 8 (Fig 3A–3G, 8 days). In both cases, ATP content was used as a viability marker.

[4] = system: liver coculture spheroids; assay: Cytotoxicity by LDH release or ATP content in the cholestasis study; details: all treatment conditions (1.25, 2.5, 10 μM), 24 h
[5] = system: bile-salt-export pump (BSEP); assay: Drug-induced cholestasis: BSEP gene expression (qRT-PCR) in coculture spheroids; details: 24 h
[6] = system: IL-6; assay: Crosstalk of parenchymal and non-parenchymal cells: IL-6 mRNA in coculture spheroids; format: cell-based, mouse
Procedure: (§1) Cytochrome P450 (Cyp450), as well as IL-6 and TNFα gene expression was measured by qRT-PCR.
(§2) Drug-induced liver injuries can be caused by several modes of action, including perturbations of biochemical pathways caused by the interaction of parenchymal and non-parenchymal cells. These complex and dynamic cellular interactions can only be represented in vivo or in coculture models, which include the parenchymal and non-parenchymal cells.

[7] = system: TNFα; assay: Crosstalk of parenchymal and non-parenchymal cells: TNFα mRNA in coculture spheroids; format: cell-based, mouse; details: addition of 50 μM Dexamethasone to LPS; as compared to IL-6
Procedure: as §1, §2

[8] = system: Cyp3a; assay: Cyp3a inhibition, P450-Glo activity assay in non-induced spheroids; details: 10 μM Ketoconazole
[9] = system: Cyp3a11; assay: Cyp450 induction on mRNA level (qRT-PCR) in liver spheroids; format: in vitro ADME, mouse; details: PCN 50 μM, Pb 100 μM
Procedure: (§3) To analyze the metabolic capacity, spheroids were incubated with different Cyp inducers for 72 hours, starting 7 days or 14 days post seeding and analyzed by qRT-PCR. […] PCN and βNF were dissolved in DMSO as a 1000x stock solution, Pb was dissolved directly in the cell culture media.
(§4) For the biotransformation of endogenous compounds and xenobiotics including drugs, liver cytochromes P450 (Cyp450) play a critical role as they convert substances into more polar products to facilitate the elimination from the body. The major drug-metabolizing Cyp450 in mouse include Cyp1a1, Cyp1a2, Cyp2b10, and Cyp3a11 [34]. To assess their metabolic capacity, spheroids were incubated with well-known Cyp450 inducers for […] and analyzed for Cyp450 induction on RNA level on day 10 and day 17 (Figs 2C and S4). […] Additionally, spheroids were incubated with Phenobarbital (Pb), a known Cyp2b10 and Cyp3a11 inducer.

[10] = system: Cyp2b10; assay: as above; format: in vitro ADME, mouse; details: 100 μM Pb
Procedure: as §3, §4

[11] = system: Cyp3a11; design: method as in PMID 22466549; details: mouse in vivo; cited from earlier work
[12] = system: Cyp1a2; assay: Cyp450 induction on mRNA level (qRT-PCR) in liver spheroids; format: in vitro ADME, mouse; details: 15 μM βNF
Procedure: as §3, §4

[13] = system: Cyp1a1; assay: as above; format: in vitro ADME, mouse; details: 15 μM βNF
Procedure: as §3, §4

[14] = system: IL-6 release of Kupffer cells and liver sinusoidal endothelial cells; assay: LPS-induced IL-6 release (ELISA) from liver spheroids; format: cell-based, mouse; details: LPS for 72 hours, 14 days after production
Procedure: (§5) The activation potential of Kupffer cells and liver sinusoidal endothelial cells was measured by assessing the lipopolysaccharide (LPS)-induced interleukin 6 (IL-6) release. […] was added, and the supernatant was collected after […]. IL-6 concentrations were measured by ELISA (BioLegend, USA). For stellate-cell activation, spheroids were treated with different concentrations of transforming growth factor beta TGFβ (Bio-Techne AG, Switzerland) for 72 hours. Induction of smooth-muscle-α-actin (Acta2) gene expression was measured via quantitative real-time polymerase chain reaction (qRT-PCR), described in the section “gene expression analysis”. For the induction of the major histocompatibility complex class II (MHCII) on LSECs, spheroids were treated with 100 ng ml^-1 tumor-necrosis factor alpha (TNFα; Sigma-Aldrich, Switzerland) for 48 h. H2-Ab1 gene expression was measured via qRT-PCR.
(§6) NPCs are activated upon detection of endotoxins, such as lipopolysaccharides (LPS), which leads to the secretion of certain cytokines by NPCs. To assess the functionality and activation potential of NPCs, monoculture and coculture spheroids were treated with LPS for 72 hours and analyzed for interleukin 6 (IL-6) release (Fig 4C). […] Stellate cells are quiescent in a normal liver but can be activated upon liver damage and are responsible for scar-tissue formation. […]

[15] = system: Cyp3a11; assay: Crosstalk of parenchymal and non-parenchymal cells: Cyp3a11 mRNA in coculture spheroids ± LPS; details: LPS alone, 10 μg/ml, 48 h
Procedure: as §1, §2

[16] = system: Acta2 (alpha smooth muscle actin); assay: Stellate-cell activation: Acta2 gene expression (qRT-PCR) in coculture spheroids; format: cell-based, mouse; details: 72 h
Procedure: as §5
NPCs are activated upon detection of endotoxins, such as lipopolysaccharides (LPS), which leads to the secretion of certain cytokines by NPCs. To assess the functionality and activation potential of NPCs, monoculture and coculture spheroids were treated with LPS for 72 hours and analyzed for interleukin 6 (IL-6) release (Fig 4C). […] Stellate cells are quiescent in a normal liver but can be activated upon liver damage and are responsible for scar-tissue formation. Stimulation with transforming growth factor beta (TGFβ), triggered a dose-dependent induction of Acta2 (alpha smooth muscle actin, αSMA), which is an activation marker for stellate cells (Fig 4D). Low concentrations of TGFβ increased Acta2 induction by 3.5 fold, whereas higher concentrations induced gene expression by 4.7-fold and 8-fold, respectively. The functional characterization of liver sinusoidal endothelial cells was performed by induction of the major histocompatibility complex II (MHC-II), which is constitutively expressed in LSECs but can be further increased by exposure to pro-inflammatory cytokines, such as tumor necrosis factor alpha (TNFα).

[17] = system: H2-Ab1 (MHC-II); assay: MHC-II induction on LSECs: H2-Ab1 gene expression (qRT-PCR) in coculture spheroids; format: cell-based, mouse; details: 100 ng ml^-1 TNFα, 48 h
Procedure: as §5, §6

[18] = read-out: 3D in vitro IC50 8 days
[19] = read-out: 3D in vitro IC50 48 h

CC(=O)Nc1ccc(O)cc1 [Acetaminophen]
Cmax [1]: 136 µM
Cmax [2]: 2220 µM
IC50 [3, 18]: 2750 µM

O=C1CC2(CCCC2)CC(=O)N1CCCCN1CCN(c2ncccn2)CC1 [Buspirone]
Cmax [1]: 0.009 µM
MOS [3D in vitro IC50 / Human Cmax] 48 h [3]: 49189
MOS [3D in vitro IC50 / Human Cmax] 8 days [3]: 20489
IC50 [3, 19]: 443 µM
IC50 [3, 18]: 184 µM
hepatotoxicity class by IC50/Cmax (MOS) ([3]; mouse): non-DILI compounds

CN(C)CCCN1c2ccccc2Sc2ccc(Cl)cc21 [CPZ, Chlorpromazine]
cytotoxicity by LDH or ATP [4]: no cytotoxicity
inhibition of BSEP expression ([5]; high concentrations of CPZ): 96%
inhibition of BSEP expression ([5]; low concentrations of CPZ): up to 87%

O=P1(N(CCCl)CCCl)NCCCO1 (stereo not shown) [Cyclophosphamide]
Cmax [1]: 96 µM
Cmax [2]: 77 µM
IC50 [3, 19]: 197 µM
IC50 [3, 18]: 13.3 µM
hepatotoxicity class by IC50/Cmax (MOS) ([3]; after 48 hours (short-term exposure), cut-off 100): hepatotoxic agents

C[C@@H]1C[C@H]2[C@@H]3CCC4=CC(=O)C=C[C@]4(C)[C@@]3(F)[C@@H](O)C[C@]2(C)[C@@]1(O)C(=O)CO [Dexamethasone]
reduction of LPS-induced IL-6 mRNA induction ([6]; co-administration of 50 μM Dexamethasone with LPS): ~ 50%
effect on LPS-induced TNFα gene expression [7]: only moderate reduction

O=C(O)Cc1ccccc1Nc1c(Cl)cccc1Cl [Diclofenac]
Cmax [1]: 9.43 µM
Cmax [2]: 10 µM
IC50 [3, 19]: 294 µM
IC50 [3, 18]: 29.7 µM

CC(=O)N1CCN(c2ccc(OCC3COC(Cn4ccnc4)(c4ccc(Cl)cc4Cl)O3)cc2)CC1 (stereo not shown) [Ketoconazole]
downregulation of Cyp3a activity [8]: 60%

CN(Cc1cnc2nc(N)nc(N)c2n1)c1ccc(C(=O)N[C@@H](CCC(=O)O)C(=O)O)cc1 [Methotrexate]
Cmax [2]: 43 µM
reduction in cell viability after a single dosage [3]: only a slight reduction in cell viability
MOS [3D in vitro IC50 / Human Cmax] 48 h [3]: 84’231
MOS [3D in vitro IC50 / Human Cmax] 8 days [3]: 44.64
IC50 [3, 18]: 207 µM
hepatotoxicity class by IC50/Cmax (MOS) ([3]; mouse): assigned to the correct class

CCC1(c2ccccc2)C(=O)NC(=O)NC1=O [Phenobarbital]
Cyp3a11 mRNA induction compared to the vehicle control ([9]; day 10 (treated day 7-10)): 6.2 fold
Cyp3a11 mRNA induction compared to the vehicle control ([9]; day 17 (treated day 14-17)): 3.9 fold
Cyp2b10 mRNA induction ([10]; day 10): 1.9 fold
Cyp2b10 mRNA induction ([10]; day 17): 2.4 fold

CC(=O)[C@H]1[C@H](C#N)C[C@H]2[C@@H]3CC=C4C[C@@H](O)CC[C@]4(C)[C@H]3CC[C@@]21C [Pregnenolone 16α-carbonitrile]
reduced expression of Cyp3a11 mRNA when administered together with LPS [11]: 25%
Cyp3a11 mRNA induction compared to the vehicle control ([9]; day 10 (treated day 7-10)): 20 fold
Cyp3a11 mRNA induction compared to the vehicle control ([9]; day 17 (treated day 14-17)): 59 fold

CC(C)NCC(O)COc1cccc2ccccc12 (stereo not shown) [Propranolol]
Cmax [1]: 0.2 µM

CN(C)[C@@H]1C(O)=C(C(N)=O)C(=O)[C@@]2(O)C(O)=C3C(=O)c4c(O)cccc4[C@@](C)(O)[C@H]3C[C@@H]12 [Tetracycline]
Cmax [1]: 21 µM
Cmax [2]: 11 µM
IC50 [3, 19]: 436 µM
IC50 [3, 18]: 39.7 µM

Cc1c(C)c2c(c(C)c1O)CCC(C)(COc1ccc(CC3SC(=O)NC3=O)cc1)O2 (stereo not shown) [Troglitazone]
cytotoxicity by LDH or ATP [4]: no cytotoxicity
inhibition of BSEP expression ([5]; 1.25 μM): 10%
inhibition of BSEP expression ([5]; 2.5 μM): 40%
inhibition of BSEP expression ([5]; 10 μM): 89%

O=c1cc(-c2ccccc2)oc2ccc3ccccc3c12 [β-naphthoflavone]
Cyp1a2 mRNA induction ([12]; day 10): 157 fold
Cyp1a2 mRNA induction ([12]; day 17): 59 fold
Cyp1a1 mRNA induction ([13]; day 10): 90 fold
Cyp1a1 mRNA induction ([13]; day 17): 103 fold

lipopolysaccharide [LPS]
IL-6 release ([14]; coculture spheroids): 65 ± 11 pg/mL
IL-6 release ([14]; monoculture spheroids): 2 pg/mL
Cyp3a11 mRNA induction [15]: did not lead to Cyp3a11 mRNA induction
IL-6 mRNA expression increase ([6]; LPS alone, 10 μg/ml, 48 h, coculture spheroids): 6 fold

transforming growth factor beta [TGFβ]
Acta2 induction ([16]; higher concentration of TGFβ (first of two)): 4.7 fold
Acta2 induction ([16]; higher concentration of TGFβ (second of two)): 8 fold
Acta2 induction ([16]; low concentrations of TGFβ): 3.5 fold

tumor-necrosis factor alpha [TNFα]
increase of mRNA expression of MHC-II (H2-Ab1) [17]: 2.3 fold
